Source: the NIST ThermoML archive (doi:10.1021/je049556i)
Numbers after ± are expanded uncertainties.

Legend:
[1] = xn = mol fraction of the nth substance listed; conditions: 101 kPa, Liquid
[2] = 101 kPa, Liquid

CC1OC(C)OC(C)O1 (stereo not given) [2,4,6-trimethyl-1,3,5-trioxane] + CCCO
mass density ([1]; 298.15 K, x1 = 0.0286): 809.7 ± 2.4 kg/m3 | viscosity ([1]; 298.15 K, x1 = 0.0286): 1.861 ± 0.072 mPa·s | mass density ([1]; 298.15 K, x1 = 0.0484): 816.43 ± 2.4 kg/m3 | viscosity ([1]; 298.15 K, x1 = 0.0484): 1.807 ± 0.07 mPa·s | mass density ([1]; 298.15 K, x1 = 0.0743): 824.91 ± 2.4 kg/m3 | viscosity ([1]; 298.15 K, x1 = 0.0743): 1.74 ± 0.067 mPa·s | mass density ([1]; 298.15 K, x1 = 0.101): 833.29 ± 2.4 kg/m3 | viscosity ([1]; 298.15 K, x1 = 0.101): 1.676 ± 0.064 mPa·s | mass density ([1]; 298.15 K, x1 = 0.197): 860.73 ± 2.3 kg/m3 | viscosity ([1]; 298.15 K, x1 = 0.197): 1.481 ± 0.056 mPa·s | mass density ([1]; 298.15 K, x1 = 0.3124): 888.86 ± 2.2 kg/m3 | viscosity ([1]; 298.15 K, x1 = 0.3124): 1.312 ± 0.049 mPa·s | mass density ([1]; 298.15 K, x1 = 0.4052): 908.29 ± 2.2 kg/m3 | viscosity ([1]; 298.15 K, x1 = 0.4052): 1.219 ± 0.045 mPa·s | mass density ([1]; 298.15 K, x1 = 0.527): 930.22 ± 2.1 kg/m3 | viscosity ([1]; 298.15 K, x1 = 0.527): 1.145 ± 0.041 mPa·s | mass density ([1]; 298.15 K, x1 = 0.5689): 936.94 ± 2.1 kg/m3 | viscosity ([1]; 298.15 K, x1 = 0.5689): 1.129 ± 0.04 mPa·s | mass density ([1]; 298.15 K, x1 = 0.7214): 958.42 ± 1.9 kg/m3 | viscosity ([1]; 298.15 K, x1 = 0.7214): 1.105 ± 0.038 mPa·s | mass density ([1]; 298.15 K, x1 = 0.8026): 968.19 ± 1.9 kg/m3 | viscosity ([1]; 298.15 K, x1 = 0.8026): 1.105 ± 0.038 mPa·s | mass density ([1]; 298.15 K, x1 = 0.8948): 978.07 ± 1.8 kg/m3 | viscosity ([1]; 298.15 K, x1 = 0.8948): 1.109 ± 0.037 mPa·s | mass density ([1]; 298.15 K, x1 = 1): 988.35 ± 1.8 kg/m3 | viscosity ([1]; 298.15 K, x1 = 1): 1.107 ± 0.037 mPa·s | mass density ([1]; 303.15 K, x1 = 0.0286): 804.77 ± 2.4 kg/m3 | viscosity ([1]; 303.15 K, x1 = 0.0286): 1.653 ± 0.065 mPa·s | mass density ([1]; 303.15 K, x1 = 0.0484): 811.5 ± 2.4 kg/m3 | viscosity ([1]; 303.15 K, x1 = 0.0484): 1.606 ± 0.063 mPa·s | mass density ([1]; 303.15 K, x1 = 0.0743): 820 ± 2.4 kg/m3 | viscosity ([1]; 303.15 K, x1 = 0.0743): 1.548 ± 0.06 mPa·s | mass density ([1]; 303.15 K, x1 = 0.101): 828.4 ± 2.4 kg/m3 | viscosity ([1]; 303.15 K, x1 = 0.101): 1.492 ± 0.058 mPa·s | mass density ([1]; 303.15 K, x1 = 0.197): 855.87 ± 2.4 kg/m3 | viscosity ([1]; 303.15 K, x1 = 0.197): 1.322 ± 0.05 mPa·s | mass density ([1]; 303.15 K, x1 = 0.3124): 883.99 ± 2.3 kg/m3 | viscosity ([1]; 303.15 K, x1 = 0.3124): 1.175 ± 0.044 mPa·s | mass density ([1]; 303.15 K, x1 = 0.4052): 903.38 ± 2.2 kg/m3 | viscosity ([1]; 303.15 K, x1 = 0.4052): 1.096 ± 0.041 mPa·s | mass density ([1]; 303.15 K, x1 = 0.527): 925.2 ± 2.2 kg/m3 | viscosity ([1]; 303.15 K, x1 = 0.527): 1.034 ± 0.037 mPa·s | mass density ([1]; 303.15 K, x1 = 0.5689): 931.88 ± 2.1 kg/m3 | viscosity ([1]; 303.15 K, x1 = 0.5689): 1.021 ± 0.037 mPa·s | mass density ([1]; 303.15 K, x1 = 0.7214): 953.17 ± 2 kg/m3 | viscosity ([1]; 303.15 K, x1 = 0.7214): 1.001 ± 0.035 mPa·s | mass density ([1]; 303.15 K, x1 = 0.8026): 962.8 ± 2 kg/m3 | viscosity ([1]; 303.15 K, x1 = 0.8026): 1.002 ± 0.035 mPa·s | mass density ([1]; 303.15 K, x1 = 0.8948): 972.51 ± 1.9 kg/m3 | viscosity ([1]; 303.15 K, x1 = 0.8948): 1.005 ± 0.034 mPa·s | mass density ([1]; 303.15 K, x1 = 1): 982.64 ± 1.8 kg/m3 | viscosity ([1]; 303.15 K, x1 = 1): 1.001 ± 0.034 mPa·s | mass density ([1]; 308.15 K, x1 = 0.0286): 800.59 ± 2.4 kg/m3 | viscosity ([1]; 308.15 K, x1 = 0.0286): 1.474 ± 0.058 mPa·s | mass density ([1]; 308.15 K, x1 = 0.0484): 807.28 ± 2.4 kg/m3 | viscosity ([1]; 308.15 K, x1 = 0.0484): 1.433 ± 0.056 mPa·s | mass density ([1]; 308.15 K, x1 = 0.0743): 815.72 ± 2.4 kg/m3 | viscosity ([1]; 308.15 K, x1 = 0.0743): 1.383 ± 0.054 mPa·s | mass density ([1]; 308.15 K, x1 = 0.101): 824.06 ± 2.4 kg/m3 | viscosity ([1]; 308.15 K, x1 = 0.101): 1.334 ± 0.052 mPa·s | mass density ([1]; 308.15 K, x1 = 0.197): 851.32 ± 2.4 kg/m3 | viscosity ([1]; 308.15 K, x1 = 0.197): 1.187 ± 0.046 mPa·s | mass density ([1]; 308.15 K, x1 = 0.3124): 879.22 ± 2.4 kg/m3 | viscosity ([1]; 308.15 K, x1 = 0.3124): 1.061 ± 0.04 mPa·s | mass density ([1]; 308.15 K, x1 = 0.4052): 898.44 ± 2.3 kg/m3 | viscosity ([1]; 308.15 K, x1 = 0.4052): 0.994 ± 0.037 mPa·s | mass density ([1]; 308.15 K, x1 = 0.527): 920.07 ± 2.2 kg/m3 | viscosity ([1]; 308.15 K, x1 = 0.527): 0.942 ± 0.034 mPa·s | mass density ([1]; 308.15 K, x1 = 0.5689): 926.69 ± 2.2 kg/m3 | viscosity ([1]; 308.15 K, x1 = 0.5689): 0.931 ± 0.034 mPa·s | mass density ([1]; 308.15 K, x1 = 0.7214): 947.75 ± 2.1 kg/m3 | viscosity ([1]; 308.15 K, x1 = 0.7214): 0.915 ± 0.032 mPa·s | mass density ([1]; 308.15 K, x1 = 0.8026): 957.27 ± 2 kg/m3 | viscosity ([1]; 308.15 K, x1 = 0.8026): 0.915 ± 0.032 mPa·s | mass density ([1]; 308.15 K, x1 = 0.8948): 966.87 ± 1.9 kg/m3 | viscosity ([1]; 308.15 K, x1 = 0.8948): 0.915 ± 0.032 mPa·s | mass density ([1]; 308.15 K, x1 = 1): 976.44 ± 1.9 kg/m3 | viscosity ([1]; 308.15 K, x1 = 1): 0.907 ± 0.031 mPa·s

CCCCO [butan-1-ol]
mass density ([2]; 298.15 K): 805.84 ± 2.4 kg/m3 | viscosity ([2]; 298.15 K): 2.618 ± 0.1 mPa·s | mass density ([2]; 303.15 K): 802 ± 2.4 kg/m3 | viscosity ([2]; 303.15 K): 2.297 ± 0.089 mPa·s | mass density ([2]; 308.15 K): 798.2 ± 2.4 kg/m3 | viscosity ([2]; 308.15 K): 2.032 ± 0.08 mPa·s

CCCCO [butan-1-ol] + CC1OC(C)OC(C)O1
mass density ([1]; 298.15 K, x2 = 0): 805.84 ± 2.4 kg/m3 | viscosity ([1]; 298.15 K, x2 = 0): 2.618 ± 0.1 mPa·s | mass density ([1]; 303.15 K, x2 = 0): 802 ± 2.4 kg/m3 | viscosity ([1]; 303.15 K, x2 = 0): 2.297 ± 0.089 mPa·s | mass density ([1]; 308.15 K, x2 = 0): 798.2 ± 2.4 kg/m3 | viscosity ([1]; 308.15 K, x2 = 0): 2.032 ± 0.08 mPa·s
